{"source": "patent US20180021395A1", "about": "“EUCOMMIA LEAF EXTRACT, AND PREPARATION METHOD AND USE THEREOF” (SICHUAN JIUZHANG BIOLOGICAL SCIENCE AND TECHNOLOGY CO., LTD, priority 2015, published 2018)", "key": {"[1]": {"system": "VEGF", "assay": "Psoriasis vulgaris model: VEGF levels in serum", "type": "in vivo, SCID mice", "conditions": "after 10 days administration, x ± s, n = 10", "excerpt": "Female and male SCID mice were separately fed for one week, and allowed to adapt growing environment. Patients with psoriasis vulgaris or plaque-type psoriasis were chosen (indentifying the informed consent). Dermatochalasis containing 2 cm×2 cm psoriasis skin damage in patients was chosen to make a fusiform incision, and full-thickness of skin was cut and trimmed into free skin graft with a suitable thickness of 0.6 cm×0.6 cm. Aseptic packaging was wrapped up with bandage macerated with normal saline, to prepare for transplantation. According to the body weight of SCID mice, 3% chloral hydrate (0.1 ml/10 g) was administrated, followed by skin preparation and unhair. Epidermis was scissored and cut into fascia layer, and the trimmed skin graft was sutured using 3-0 silk thread and subjected to pressure dressing with cotton ball soaking with normal saline. After transplantation of skin, mice were raised in separated cages, and all processes were finished within 2 h. After 10 days, skin damage arounding was injected with PBMC (1×10^6/mouse) provided by transplantation supplier and treated with ConA. […]\nBefore sacrificing guinea pigs, blood was taken and centrifuged under 2000r/rain, to collect serum. Using ELISA kit, optical density was detected as instructions in kit. The results were calculated by standard curve, and the ratio of cAMP/cGMP was calculated according to the results. […]"}, "[2]": {"system": "cAMP and cGMP in serum", "assay": "Psoriasis vulgaris model: content and ratio of cAMP and cGMP in serum (ELISA)", "type": "in vivo, SCID mice", "conditions": "x ± s, n = 10", "excerpt": "Female and male SCID mice were separately fed for one week, and allowed to adapt growing environment. Patients with psoriasis vulgaris or plaque-type psoriasis were chosen (indentifying the informed consent). Dermatochalasis containing 2 cm×2 cm psoriasis skin damage in patients was chosen to make a fusiform incision, and full-thickness of skin was cut and trimmed into free skin graft with a suitable thickness of 0.6 cm×0.6 cm. Aseptic packaging was wrapped up with bandage macerated with normal saline, to prepare for transplantation. According to the body weight of SCID mice, 3% chloral hydrate (0.1 ml/10 g) was administrated, followed by skin preparation and unhair. Epidermis was scissored and cut into fascia layer, and the trimmed skin graft was sutured using 3-0 silk thread and subjected to pressure dressing with cotton ball soaking with normal saline. After transplantation of skin, mice were raised in separated cages, and all processes were finished within 2 h. After 10 days, skin damage arounding was injected with PBMC (1×10^6/mouse) provided by transplantation supplier and treated with ConA. After two weeks, exterior packing was dismantled to observe the survival situation of skin and confirm the success of model establishment, and the successful model was used for further experiment.\nThe administration was kept for 10 days.\nBefore sacrificing guinea pigs, blood was taken and centrifuged under 2000r/rain, to collect serum. Using ELISA kit, optical density was detected as instructions in kit. The results were calculated by standard curve, and the ratio of cAMP/cGMP was calculated according to the results.\nAll values were processed using SPSS13.0 software, and the experimental results were presented as x±s. p<0.05 was considered to be a statistical difference. The mean of multi-samples was compared using analysis of variance."}, "[3]": {"system": "psoriasis vulgaris model (transplanted psoriasis skin damage)", "assay": "Psoriasis vulgaris model: SCID mice transplanted with patient psoriasis skin, HE histology and Baker scores", "type": "in vivo", "method": "Female and male SCID mice were separately fed for one week, and allowed to adapt growing environment. Patients with psoriasis vulgaris or plaque-type psoriasis were chosen (indentifying the informed consent). […] Aseptic packaging was wrapped up with bandage macerated with normal saline, to prepare for transplantation. According to the body weight of SCID mice, 3% chloral hydrate (0.1 ml/10 g) was administrated, followed by skin preparation and unhair. […] After transplantation of skin, mice were raised in separated cages, and all processes were finished within 2 h. After 10 days, skin damage arounding was injected with PBMC (1×10^6/mouse) provided by transplantation supplier and treated with ConA. After two weeks, exterior packing was dismantled to observe the survival situation of skin and confirm the success of model establishment, and the successful model was used for further experiment. […] The administration was kept for 10 days. […] Skin damage was trimmed into suitable size, dehydrated, embedded, sliced, and stained with HE. […] Baker scores were calculated, and the difference in data of each group was compared. All values were processed using SPSS13.0 software, and the experimental results were presented as x±s. p<0.05 was considered to be a statistical difference. The mean of multi-samples was compared using analysis of variance."}, "[4]": {"conditions": "serum, ELISA, after 10 days administration"}, "[5]": {"conditions": "transplanted skin, HE stain, after 10 days administration"}}, "note": "Marks after values point to notes of the source that are not given here."}
{"smiles": "COc1cc(C)c(/C=C/C(C)=C/C=C/C(C)=C/C(=O)O)c(C)c1C", "note": "[Positive control, Acitretin A capsule]", "values": [{"measurement": "VEGF levels in serum", "setting": "[1]", "value": "93.40 ± 6.54^ab pg/m1"}, {"measurement": "cAMP/cGMP", "setting": "[2]; ratio of serum contents", "value": "3.02 ± 0.08^ab"}, {"measurement": "cAMP in serum", "setting": "[2]; [4]", "value": "10.22 ± 0.73^ab pmol/m1"}, {"measurement": "cGMP in serum", "setting": "[2]; [4]", "value": "3.38 ± 0.20^ab pmol/m1"}, {"measurement": "Number of acanthocytes", "setting": "[3]; 10 days administration, x ± s, n = 10", "value": "27.09 ± 8.83^a"}, {"measurement": "Monocytes (count)", "setting": "[3]; surrounding superficial layer blood vessels in dermis, 200 times visual fields, 10 days administration, x ± s, n = 10", "value": "66.40 ± 9.28^a"}, {"measurement": "Baker scores", "setting": "[3]; test drugs 100 mg/kg intragastric once a day, positive control 2.25 mg/kg twice a day, 10 days, x ± s, n = 10", "value": "6.39 ± 1.53^a"}, {"measurement": "degree of parakeratosis under light microscope", "setting": "[3]; [5]", "value": "middle degree of parakeratosis"}, {"measurement": "epidermis wooden stick-like hyperplasia", "setting": "[3]; [5]", "value": "middle degree of wooden stick-like hyperplasia"}, {"measurement": "monocyte infiltration surrounding blood vessels in dermis", "setting": "[3]; [5]", "value": "small amounts of monocyte infiltration"}, {"measurement": "punctiform granular layer", "setting": "[3]; [5]", "value": "local visible punctiform granular layer and hyperkeratinization"}, {"measurement": "spinous layer thickness", "setting": "[3]; [5]", "value": "24-32 layers"}]}
